Reference: PMC7615343, “Fluorination Influences the Bioisostery of Myo-Inositol Pyrophosphate Analogs” (Chemistry (Weinheim an der Bergstrasse, Germany), 2023)

What was measured:
[1] = molecular target: T1, PPIP5K2^1-366 (human PPIP5K2 kinase domain) (Homo sapiens, UniProt O43314); experiment: Isothermal titration calorimetry of ligand binding to PPIP5K2KD; conditions: ITC, 25°C; for ΔH / ΔS: 7.5 μM PPIP5K2^1-366, 75 μM ligand, pH 7.2; for Kd: 7.5 μM PPIP5K2^1-366 in cell, 75 μM ligand in syringe, pH 7.2, 1mM AMP-PNP, 1mM MgCl2, read-out: Kd (apparent)
T1 construct: one comprised residues 1–366; made in house
T1 sequence (O43314 1-366): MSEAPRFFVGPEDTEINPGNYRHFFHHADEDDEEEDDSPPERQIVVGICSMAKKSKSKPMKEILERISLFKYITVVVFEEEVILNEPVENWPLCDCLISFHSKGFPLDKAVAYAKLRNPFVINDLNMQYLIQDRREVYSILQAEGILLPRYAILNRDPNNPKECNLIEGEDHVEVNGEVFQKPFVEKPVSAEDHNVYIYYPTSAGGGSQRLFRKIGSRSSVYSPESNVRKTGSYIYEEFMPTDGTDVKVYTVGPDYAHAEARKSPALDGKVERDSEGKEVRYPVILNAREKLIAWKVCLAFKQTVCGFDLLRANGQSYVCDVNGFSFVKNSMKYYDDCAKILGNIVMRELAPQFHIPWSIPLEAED
Description: We next used isothermal titration calorimetry (ITC) to analyze the interactions of PPIP5K2^KD with 5PP-IP5 and each of the four analogs studied herein (Figure 5A-E). […] At the same time, the enthalpic gain for binding was largest for 5PCF2Am-IP5 and 5PA-IP5. A possible explanation may be that these two ligands are less strongly hydrated, due to their lower overall charge. The enthalpic cost for dehydration of 5PCF2Am-IP5 and 5PA-IP5 is therefore lower, compared to the other molecules, resulting in a higher enthalpic gain overall. A less strongly hydrated ligand will also release fewer water molecules upon binding, consistent with the lower entropic gains.
Figure 5 Analysis of ligand binding to the PPIP5K2^KD by ITC. Test solutions contained 7.5 μM of PPIP5K2^1-366 in the sample cell and 75 μM ligand in the syringe. Other details are provided in the Methods Section. Representative thermograms (1 of 3 replicates) are shown for titration of either (A) 5PP-IP5; (B) 5PCPF2P-IP5; (C) 5PCP-IP5; (D) 5PCF2Am-IP5; (E) 5PA-IP5. (F) Corresponding thermodynamic data. TEXT PRINTED IN THE PICTURE: (F) 5PP-: Kd (nM): 123 ± 13; ΔH (kJ/mol): -26 ± 2; ΔS (kJ/mol/deg): 0.046 ± 0.008 | (F) 5PCF2-: Kd (nM): 246 ± 10; ΔH (kJ/mol): -16 ± 1; ΔS (kJ/mol/deg): 0.072 ± 0.005 | (F) 5PCP-: Kd (nM): 100 ± 10; ΔH (kJ/mol): -20 ± 2; ΔS (kJ/mol/deg): 0.067 ± 0.016 | (F) 5PCF2-Am-: Kd (nM): 90 ± 13; ΔH (kJ/mol): -38 ± 2; ΔS (kJ/mol/deg): 0.007 ± 0.004 | (F) 5PA-: Kd (nM): 90 ± 7; ΔH (kJ/mol): -36 ± 3; ΔS (kJ/mol/deg): 0.013 ± 0.008 […]
(§1) Calorimetry experiments were performed using a MicroCal PEAQ-ITC (Malvern Panalytical) with 7.5 μM recombinant PPIP5K21-366 in the sample cell and 75 μM of ligand in the syringe, each of which was maintained at 25°C in buffer containing 20 mM HEPES, pH 7.2, 150 mM KCl, 0.05 mM EDTA, 1mM AMP-PNP, 1mM MgCl2 as indicated. The sample cell (volume = 204 μL) and the syringe were cleaned before each run. Thermograms were constructed from 13 injections, each of which involved 3 μL of ligand delivered for 6 s, with an equilibration time of 150-300 s between each injection. The stirring speed was set to 750 rpm. Data were fitted to a single binding site model using the analysis software provided by the manufacturer. At least three runs were performed for each condition.
Protein expression and purification.
Throughout the main text, PPIP5K2KD is deployed as an abbreviation for the human PPIP5K2 kinase domain. However, two different constructs were utilized, as described in the figure legends and within the Methods section below: one comprised residues 1–366 (PPIP5K21-366) and the other comprised residues 41–366 (PPIP5K241-366). Both constructs were expressed and purified as described previously.[6] The human DIPP1 construct (residues 1-148) was expressed and purified as described in [7]. […]
The molecular graphics representations wer e prepared with the program PyMol (Schrödinger, LLC). Atomic coordinates an d structure factors have been deposited with the Protein Data Bank with accession codes 8G9C, 8G9D, 8G9E.
PPIP5K2KD reverse kinase assay […]
Isothermal titration calorimetry
as §1, with “PPIP5K21–366” for “PPIP5K21-366”, “2 04 µL)” for “204 μL)”, “µL” for “μL”, “150 -300” for “150-300”, “cond ition. […]” for “condition.”

[2] = molecular target: T1, PPIP5K2^1-366 (human PPIP5K2 kinase domain); conditions: published value; read-out: IC50, inhibition of the reverse kinase activity of PPIP5K2KD; cited from earlier work

Compound	ΔH [1] [kcal/mol]	ΔS [1] [kJ/mol/deg]	Kd [1] [nM]	IC50 [2] [nM]
O=C(CP(=O)(O)O)O[C@@H]1[C@@H](OP(=O)(O)O)[C@H](OP(=O)(O)O)[C@H](OP(=O)(O)O)[C@H](OP(=O)(O)O)[C@H]1OP(=O)(O)O [5PA-IP5]	-8.6 ± 0.72	0.013 ± 0.008	90 ± 7	129
O=C(N[C@@H]1[C@@H](OP(=O)(O)O)[C@H](OP(=O)(O)O)[C@H](OP(=O)(O)O)[C@H](OP(=O)(O)O)[C@H]1OP(=O)(O)O)C(F)(F)P(=O)(O)O [5PCF2Am-IP5]	-9.08 ± 0.48	0.007 ± 0.004	90 ± 13	–
O=P(O)(O)O[C@H]1[C@@H](OP(=O)(O)O)[C@H](OP(=O)(O)O)[C@@H](OP(=O)(O)OP(=O)(O)O)[C@H](OP(=O)(O)O)[C@H]1OP(=O)(O)O [5PP-IP5, 5-diphosphoinositol pentakisphosphate]	-6.21 ± 0.48	0.046 ± 0.008	123	–
